{"source": "patent US20090247646A1", "about": "“USE OF RESVERATROL AND DERIVATIVES THEREOF FOR PROMOTING THE WELLNESS STATE IN MAMMALS” (priority 2006, published 2009)", "test_system": "gene expression in heart tissue", "test": "Genome-wide gene expression in heart tissue of old mice fed a resveratrol-supplemented diet (Affymetrix Mouse Genome 430 2.0 array)", "type": "in vivo", "key": {"[1]": {"conditions": "ADP-ribosyltransferase 1, Genebank ID NM_009710"}, "[2]": {"conditions": "Bcl2-associated athanogene 3, Genebank ID NM_013863"}, "[3]": {"conditions": "DnaJ (Hsp40) homolog, subfamily A, member 3, Genebank ID AK004575"}, "[4]": {"conditions": "DnaJ (Hsp40) homolog, subfamily A, member 4, Genebank ID NM_021422"}, "[5]": {"conditions": "DnaJ (Hsp40) homolog, subfamily B, member 5, Genebank ID AI664344"}, "[6]": {"conditions": "DnaJ (Hsp40) homolog, subfamily B, member 10, Genebank ID NM_020266"}, "[7]": {"conditions": "F-box only protein 25, Genebank ID NM_025785"}, "[8]": {"conditions": "F-box only protein 32, Genebank ID AF441120"}, "[9]": {"conditions": "F-box protein 30, Genebank ID AK006369"}, "[10]": {"conditions": "FK506 binding protein 7, Genebank ID NM_010222"}, "[11]": {"conditions": "G protein-coupled receptor kinase 5, Genebank ID BC019379"}, "[12]": {"conditions": "Hbs1-like (S. cerevisiae), Genebank ID AK012856"}, "[13]": {"conditions": "Mus musculus similar to heart alpha-kinase (LOC381181), mRNA, Genebank ID AY044451"}, "[14]": {"conditions": "Mus musculus transcribed sequences, Genebank ID AK004331"}, "[15]": {"conditions": "No description found, Genebank ID BG976607"}, "[16]": {"conditions": "O-linked N-acetylglucosamine (GlcNAc) transferase (UDP-N-acetylglucosamine:polypeptide-N-acetylglucosaminyl transferase), Genebank ID BG065325"}, "[17]": {"conditions": "PTEN induced putative kinase 1, Genebank ID AF316872"}, "[18]": {"conditions": "Stam binding protein, Genebank ID AK019907"}, "[19]": {"conditions": "acid phosphatase 1, soluble, Genebank ID AW554436"}}}
{"smiles": "Oc1ccc(/C=C/c2cc(O)cc(O)c2)cc1", "note": "[resveratrol, 3,4′,5-Trihydroxy-trans-stilbene]", "values": [{"measurement": "Effect of resveratrol on changeing gene expression from old to young profile", "setting": "1448825_at pyruvate dehydrogenase kinase, isoenzyme 2", "value": ">100", "unit": "%"}, {"measurement": "Effect of resveratrol on changeing gene expression from old to young profile", "setting": "1448938_at replication protein A3", "value": ">100", "unit": "%"}, {"measurement": "Effect of resveratrol on changeing gene expression from old to young profile", "setting": "1449116_a_at deoxythymidylate kinase", "value": ">100", "unit": "%"}, {"measurement": "Effect of resveratrol on changeing gene expression from old to young profile", "setting": "1449334_at tissue inhibitor of metalloproteinase 3", "value": ">100", "unit": "%"}, {"measurement": "Effect of resveratrol on changeing gene expression from old to young profile", "setting": "1450008_a_at catenin beta", "value": ">100", "unit": "%"}, {"measurement": "Effect of resveratrol on changeing gene expression from old to young profile", "setting": "1450048_a_at vacuolar protein sorting 33B (yeast) [BLAST]", "value": ">100", "unit": "%"}, {"measurement": "Effect of resveratrol on changeing gene expression from old to young profile", "setting": "1450634_at ATPase, H+ transporting, V1 subunit A, isoform 1", "value": ">100", "unit": "%"}, {"measurement": "Effect of resveratrol on changeing gene expression from old to young profile", "setting": "1450720_at acid phosphatase 1, soluble", "value": ">100", "unit": "%"}, {"measurement": "Effect of resveratrol on changeing gene expression from old to young profile", "setting": "1450899_at neural precursor cell expressed, developmentally down-regulated gene 1", "value": ">100", "unit": "%"}, {"measurement": "Effect of resveratrol on changeing gene expression from old to young profile", "setting": "1451012_a_at cold shock domain protein A", "value": ">100", "unit": "%"}, {"measurement": "Effect of resveratrol on changeing gene expression from old to young profile", "setting": "1451148_at PTEN induced putative kinase 1", "value": ">100", "unit": "%"}, {"measurement": "Effect of resveratrol on changeing gene expression from old to young profile", "setting": "1451249_at DNA segment, Chr 8, ERATO Doi 812, expressed", "value": ">100", "unit": "%"}, {"measurement": "Effect of resveratrol on changeing gene expression from old to young profile", "setting": "1452066_a_at Nedd4 family interacting protein 2", "value": ">100", "unit": "%"}, {"measurement": "Effect of resveratrol on changeing gene expression from old to young profile", "setting": "1452767_at ribosome binding protein 1", "value": ">100", "unit": "%"}, {"measurement": "Effect of resveratrol on changeing gene expression from old to young profile", "setting": "1452843_at interleukin 6 signal transducer", "value": ">100", "unit": "%"}, {"measurement": "Effect of resveratrol on changeing gene expression from old to young profile", "setting": "1453124_at transportin 3", "value": ">100", "unit": "%"}, {"measurement": "Effect of resveratrol on changeing gene expression from old to young profile", "setting": "1453129_a_at regulator of G-protein signaling 12", "value": ">100", "unit": "%"}, {"measurement": "Effect of resveratrol on changeing gene expression from old to young profile", "setting": "1454811_a_at tumor differentially expressed 2", "value": ">100", "unit": "%"}, {"measurement": "Effect of resveratrol on changeing gene expression from old to young profile", "setting": "1454837_at ceroid-lipofuscinosis, neuronal 6", "value": ">100", "unit": "%"}, {"measurement": "Effect of resveratrol on changeing gene expression from old to young profile", "setting": "1454848_at protein phosphatase 1, regulatory (inhibitor) subunit 12C [BLAST]", "value": ">100", "unit": "%"}, {"measurement": "Effect of resveratrol on changeing gene expression from old to young profile", "setting": "1454974_at syntaxin 8", "value": ">100", "unit": "%"}, {"measurement": "Effect of resveratrol on changeing gene expression from old to young profile", "setting": "1455182_at kinesin family member 1B", "value": ">100", "unit": "%"}, {"measurement": "Effect of resveratrol on changeing gene expression from old to young profile", "setting": "1455506_at Mus musculus transcribed sequences", "value": ">100", "unit": "%"}, {"measurement": "Effect of resveratrol on changeing gene expression from old to young profile", "setting": "1455702_at WD repeat domain 22", "value": ">100", "unit": "%"}, {"measurement": "Effect of resveratrol on changeing gene expression from old to young profile", "setting": "1460028_at Mus musculus transcribed sequences", "value": ">100", "unit": "%"}, {"measurement": "Effect of resveratrol on changeing gene expression from old to young profile", "setting": "1460174_at dexamethasone-induced transcript", "value": ">100", "unit": "%"}, {"measurement": "Effect of resveratrol on changeing gene expression from old to young profile", "setting": "1460199_a_at platelet-activating factor acetylhydrolase, isoform 1b, beta1 subunit", "value": ">100", "unit": "%"}, {"measurement": "% of res effect", "setting": "[1]", "value": 108.0103, "unit": "%"}, {"measurement": "Median RES", "setting": "[1]", "value": 87939}, {"measurement": "% of res effect", "setting": "[2]", "value": 131.9726, "unit": "%"}, {"measurement": "Median RES", "setting": "[2]", "value": 67398}, {"measurement": "% of res effect", "setting": "[3]", "value": 67.85, "unit": "%"}, {"measurement": "Median RES", "setting": "[3]", "value": 30553}, {"measurement": "% of res effect", "setting": "[4]", "value": 61.28, "unit": "%"}, {"measurement": "Median RES", "setting": "[4]", "value": 20850}, {"measurement": "% of res effect", "setting": "[5]", "value": 157.0689, "unit": "%"}, {"measurement": "Median RES", "setting": "[5]", "value": 17969}, {"measurement": "% of res effect", "setting": "[6]", "value": 124.1691, "unit": "%"}, {"measurement": "Median RES", "setting": "[6]", "value": 29661}, {"measurement": "number of genes changed by resveratrol", "setting": "Effect 60-70%", "value": 39}, {"measurement": "number of genes changed by resveratrol", "setting": "Effect 70-80%", "value": 48}, {"measurement": "number of genes changed by resveratrol", "setting": "Effect 80-90%", "value": 52}, {"measurement": "number of genes changed by resveratrol", "setting": "Effect 90-100%", "value": 62}, {"measurement": "number of genes changed by resveratrol", "setting": "Effect <60%", "value": 44}, {"measurement": "number of genes changed by resveratrol", "setting": "Effect >100% (expression in resveratrol-fed old mice as percentage of untreated young mice)", "value": 340}, {"measurement": "% of res effect", "setting": "[7]", "value": 80.27, "unit": "%"}, {"measurement": "Median RES", "setting": "[7]", "value": 11530}, {"measurement": "% of res effect", "setting": "[8]", "value": 104.0857, "unit": "%"}, {"measurement": "Median RES", "setting": "[8]", "value": 35761}, {"measurement": "% of res effect", "setting": "[9]", "value": 58.67, "unit": "%"}, {"measurement": "Median RES", "setting": "[9]", "value": 6641}, {"measurement": "% of res effect", "setting": "[10]", "value": 196.8163, "unit": "%"}, {"measurement": "Median RES", "setting": "[10]", "value": 33928}, {"measurement": "% of res effect", "setting": "[11]", "value": 80.42, "unit": "%"}, {"measurement": "Median RES", "setting": "[11]", "value": 37493}, {"measurement": "% of res effect", "setting": "[12]", "value": 74.36, "unit": "%"}, {"measurement": "Median RES", "setting": "[12]", "value": 9115}, {"measurement": "% of res effect", "setting": "[13]", "value": 190.8585, "unit": "%"}, {"measurement": "Median RES", "setting": "[13]", "value": 21847}, {"measurement": "% of res effect", "setting": "[14]", "value": 105.9, "unit": "%"}, {"measurement": "Median RES", "setting": "[14]", "value": 38260}, {"measurement": "% of res effect", "setting": "[15]", "value": 69.74, "unit": "%"}, {"measurement": "Median RES", "setting": "[15]", "value": 9370}, {"measurement": "% of res effect", "setting": "[16]", "value": 125.3946, "unit": "%"}, {"measurement": "Median RES", "setting": "[16]", "value": 2989}, {"measurement": "% of res effect", "setting": "[17]", "value": 147.4853, "unit": "%"}, {"measurement": "Median RES", "setting": "[17]", "value": 116921}, {"measurement": "% of res effect", "setting": "[18]", "value": 230.3846, "unit": "%"}, {"measurement": "Median RES", "setting": "[18]", "value": 13590}, {"measurement": "number of genes changed by resveratrol", "setting": "Sum", "value": 585}, {"measurement": "% of res effect", "setting": "[19]", "value": 349.7466, "unit": "%"}, {"measurement": "Median RES", "setting": "[19]", "value": 34652}, {"measurement": "number of genes that resembled or exceeded the expression level of the young group", "setting": "among genes changed by resveratrol treatment, heart", "value": 342}]}
